For assay [1], the target named is T1, NAD-dependent protein deacetylase sirtuin-2 (Homo sapiens) (UniProt Q8IXJ6).
T1 sequence (whole entry): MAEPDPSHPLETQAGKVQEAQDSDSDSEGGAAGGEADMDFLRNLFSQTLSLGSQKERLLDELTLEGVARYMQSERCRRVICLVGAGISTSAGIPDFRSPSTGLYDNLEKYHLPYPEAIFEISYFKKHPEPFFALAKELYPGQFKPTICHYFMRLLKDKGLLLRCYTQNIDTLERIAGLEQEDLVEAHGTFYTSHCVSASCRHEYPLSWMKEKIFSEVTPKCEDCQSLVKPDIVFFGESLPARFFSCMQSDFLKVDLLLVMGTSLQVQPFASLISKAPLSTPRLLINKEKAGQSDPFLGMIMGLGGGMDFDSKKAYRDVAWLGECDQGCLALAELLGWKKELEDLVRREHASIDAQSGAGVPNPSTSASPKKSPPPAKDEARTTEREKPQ
The experiment in a line: Inhibition of GST-tagged human recombinant SIRT2 (34 to 356 residues) expressed in Escherichia coli BL21 at 10 uM using Fluor de Lys-SIRT as substrate incubated for 60 mins prior to substrate addition measured after 45 mins by fluorimetric analysis.

Assay [2] concerns the target T1, NAD-dependent protein deacetylase sirtuin-2 (Homo sapiens). The experiment in a line: Inhibition of GST-tagged human recombinant SIRT2 (34 to 356 residues) expressed in Escherichia coli BL21 at 50 uM using Fluor de Lys-SIRT as substrate incubated for 60 mins prior to substrate addition measured after 45 mins by fluorimetric analysis.
The target in assay [3] is T2, NAD-dependent protein deacetylase sirtuin-1 (Homo sapiens, UniProt Q96EB6).
T2 sequence (Q96EB6 whole entry): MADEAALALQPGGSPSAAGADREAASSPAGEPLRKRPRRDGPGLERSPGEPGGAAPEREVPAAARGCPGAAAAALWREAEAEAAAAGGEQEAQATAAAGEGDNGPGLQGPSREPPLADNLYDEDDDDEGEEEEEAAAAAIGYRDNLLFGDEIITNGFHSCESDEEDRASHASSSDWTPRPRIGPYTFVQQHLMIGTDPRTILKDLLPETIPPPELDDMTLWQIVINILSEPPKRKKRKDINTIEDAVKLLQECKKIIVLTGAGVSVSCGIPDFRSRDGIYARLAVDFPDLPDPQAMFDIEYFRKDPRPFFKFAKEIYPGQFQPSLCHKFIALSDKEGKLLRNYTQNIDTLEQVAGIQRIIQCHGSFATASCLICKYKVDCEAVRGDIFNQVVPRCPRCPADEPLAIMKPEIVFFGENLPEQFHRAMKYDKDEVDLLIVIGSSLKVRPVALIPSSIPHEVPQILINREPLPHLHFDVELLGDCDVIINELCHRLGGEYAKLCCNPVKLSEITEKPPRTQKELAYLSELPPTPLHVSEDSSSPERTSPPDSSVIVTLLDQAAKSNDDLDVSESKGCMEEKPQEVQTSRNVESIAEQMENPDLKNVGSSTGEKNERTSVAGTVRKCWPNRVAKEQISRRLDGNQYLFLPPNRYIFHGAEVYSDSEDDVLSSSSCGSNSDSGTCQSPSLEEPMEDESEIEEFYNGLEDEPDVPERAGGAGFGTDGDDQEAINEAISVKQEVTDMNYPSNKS
As to the kind of experiment: Inhibition of human SIRT1.

Assay [4] concerns the target T1, NAD-dependent protein deacetylase sirtuin-2 (Homo sapiens). The note with it: 25 uM.
Description: Inhibition of human recombinant SIRT2 at 25 uM
Assay [5] concerns the target T3, NAD-dependent protein deacetylase sirtuin-2 (Homo sapiens, UniProt Q8IXJ6).
T3 sequence (Q8IXJ6 whole entry): T1 sequence (whole entry)
The experiment in a line: Inhibition of GST-tagged human recombinant SIRT2 (34 to 356 residues) expressed in Escherichia coli BL21 using Fluor de Lys-SIRT as substrate incubated for 60 mins prior to substrate addition measured after 45 mins by fluorimetric analysis.

Assay [6] has as its target T4, NAD-dependent protein deacetylase sirtuin-3, mitochondrial (Homo sapiens, UniProt Q9NTG7).
T4 sequence (Q9NTG7 whole entry): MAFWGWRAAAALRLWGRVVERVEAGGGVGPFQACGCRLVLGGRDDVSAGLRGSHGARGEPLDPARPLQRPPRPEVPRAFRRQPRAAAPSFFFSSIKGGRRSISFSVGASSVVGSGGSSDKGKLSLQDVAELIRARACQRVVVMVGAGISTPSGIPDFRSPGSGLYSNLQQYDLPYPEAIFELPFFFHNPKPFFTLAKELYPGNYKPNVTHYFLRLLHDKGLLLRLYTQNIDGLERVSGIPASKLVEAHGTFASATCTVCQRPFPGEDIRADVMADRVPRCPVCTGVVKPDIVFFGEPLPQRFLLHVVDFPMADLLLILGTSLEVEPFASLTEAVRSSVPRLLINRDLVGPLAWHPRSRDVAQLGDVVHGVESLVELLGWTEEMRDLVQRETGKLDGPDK
As to the kind of experiment: Inhibition of human SIRT3.

Assay [7] has as its target T4, NAD-dependent protein deacetylase sirtuin-3, mitochondrial. The experiment in a line: Inhibition of human recombinant SIRT3 using Fluor de Lys-SIRT as substrate incubated for 60 mins prior to substrate addition measured after 45 mins by fluorimetric analysis.
In assay [8] the target is T2, NAD-dependent protein deacetylase sirtuin-1. The experiment in a line: Inhibition of human recombinant SIRT1 using Fluor de Lys-SIRT as substrate incubated for 60 mins prior to substrate addition measured after 45 mins by fluorimetric analysis.

As to `O=C(Nc1cccc(NC(=O)c2ccccc2Br)c1)c1cccc(Br)c1`, the inhibition in assay [1] came out at 0%; in assay [2], 19%.
As to `O=C(Nc1cccc(NC(=O)c2ccccc2)c1)c1ccccc1`, the inhibition was found to be 3% in assay [1] and 10% in assay [2].
Take `O=C(Nc1cccc(-c2ccc3ccccc3c2)c1)c1cccc(Br)c1`: the inhibition in assay [1] stood at 19%; in assay [2], 43%.
Consider `COc1ccccc1C(=O)Nc1cccc(-c2ccc3ccccc3c2)c1`, for which the inhibition in assay [1] is 10%; in assay [2], 47%.
Take `Nc1ccccc1NC(=O)c1cccc(-c2ccc3ccccc3c2)c1`: the inhibition in assay [1] is 22%; in assay [2], 29%.
For `N#C/C(=C\c1ccc(-c2cc(Cl)ccc2Cl)o1)C(=O)Nc1cccc2ncccc12`, the IC50 in assay [3] was more than 50 µM.
`O=C(Nc1cccc(Br)c1)c1cccc(-c2ccc3ccccc3c2)c1`: the values for the inhibition in assay [1] and in assay [2] were 23% and 46%, respectively.
As to `COc1cccc(C(=O)Nc2cccc(-c3ccc4ccccc4c3)c2)c1`, the inhibition in assay [1] was 8%; in assay [2] it was 44%.
Turning to `COc1ccc(C(=O)Nc2cccc(NC(=O)c3cccc(Br)c3)c2)cc1`, the inhibition is 4% in assay [1] and 0% in assay [2].
Regarding `O=C(Nc1cccc(NC(=O)c2cccc(Br)c2)c1)c1cccc(Br)c1`, the inhibition is 7% in assay [1] and 12% in assay [2].
In assay [4], `CC(C(=O)Nc1cccc(/N=C/c2c(O)ccc3ccccc23)c1)c1ccccc1` (centres undefined) came in with an inhibition of 80%.
Turning to `O=C(Nc1ccccn1)c1cccc(-c2ccc3ccccc3c2)c1`, the IC50 in assay [5] was 22 µM.
Turning to `O=C(Nc1ncccn1)c1cccc(-c2ccc3ccccc3c2)c1`, in assay [5], the IC50 was determined as 13 µM.
With `COc1ccc(C(=O)Nc2cccc(NC(=O)c3ccccc3Br)c2)cc1`, the inhibition in assay [1] stood at 10%; in assay [2], 31%.
As for `O=C(Nc1cccc(NC(=O)c2ccccc2Br)c1)c1ccccc1Br`, the inhibition in assay [1] came to 3%; in assay [2], 49%.
`COc1ccccc1C(=O)Nc1cccc(NC(=O)c2ccccc2Br)c1`: the inhibition in assay [1] is 10%; in assay [2], 28%.
As to `O=C(Nc1cccc(-c2ccc3ccccc3c2)c1)c1ccccc1Br`, the inhibition worked out at 39% in assay [1] and 56% in assay [2].
In the case of `O=C(Nc1cc[nH]n1)c1cccc(-c2ccc3ccccc3c2)c1`, the IC50 in assay [5] is 42 µM.
On the same count and under the same terms, to `O=C(Nc1nc[nH]n1)c1cccc(-c2ccc3ccccc3c2)c1` belongs 57 µM.
As to `Cc1cccc(C(=O)Nc2cccc(NC(=O)c3ccccc3Br)c2)c1`, the inhibition was 18% in assay [1] and 24% in assay [2].
As to `O=C(Nc1cccnn1)c1cccc(-c2ccc3ccccc3c2)c1`, the half-maximal inhibitory concentration (IC50) in assay [5] came to 0.9 µM.
Same read-out and setting: to `O=C(Nc1ccnnc1)c1cccc(-c2ccc3ccccc3c2)c1` belongs 6.3 µM; to `O=C(Nc1ccncc1)c1cccc(-c2ccc3ccccc3c2)c1`, 16 µM.
For the molecule `O=C(Nc1ccccc1)c1cccc(-c2ccc3ccccc3c2)c1`, the inhibition amounted to 21% in assay [1] and 14% in assay [2].
In the same order, the values of `O=C(Nc1cccc(NC(=O)c2cc(C(F)(F)F)cc(C(F)(F)F)c2)c1)c1cccc(Br)c1` are 3% and 12%.
In the case of `O=C(Nc1cnccn1)c1cccc(-c2ccc3ccccc3c2)c1`, the IC50 in assay [5] came out at 6.2 µM.
For the molecule `O=C(Nc1cccc(Br)c1)c1cccc(S(=O)(=O)N2CCCCCC2)c1`, the IC50 in assay [6] and in assay [3] was more than 50 µM in each case.
Consider `O=C(Nc1cccc(NC(=O)c2ccccc2Br)c1)c1ccccc1`, for which the results for the inhibition in assay [1] and in assay [2] were 8% and 28%, respectively.
Regarding `O=C(Nc1nccs1)c1cccc(-c2ccc3ccccc3c2)c1`, the IC50 in assay [5] turned out to be 12 µM.
Consider `O=C(Nc1cnccc1Br)c1cccc(-c2ccc3ccccc3c2)c1`, for which the IC50 in assay [5] is 0.6 µM; in assay [7] it was more than 100 µM; in assay [8], more than 100 µM.
For the molecule `O=C(Nc1ccccc1[N+](=O)[O-])c1cccc(-c2ccc3ccccc3c2)c1`, the inhibition turned out to be 30% in assay [1] and 76% in assay [2].
For the molecule `O=C(Nc1cccnc1)c1cccc(-c2ccc3ccccc3c2)c1`, the IC50 in assay [5] amounted to 3.3 µM.
Turning to `COc1cccc(C(=O)Nc2cccc(NC(=O)c3ccccc3Br)c2)c1`, the figures for the inhibition in assay [1] and in assay [2] were 4% and 19%, respectively.
Consider `O=C(Nc1ccccc1Br)c1cccc(-c2ccc3ccccc3c2)c1`, for which the inhibition in assay [1] was found to be 64%; in assay [2], 95%. Besides, in assay [5], the IC50 amounted to 5.3 µM.
`O=C(Nc1cccc(NC(=O)c2cccc(Br)c2)c1)c1cc(Cl)cc(Cl)c1`: the results for the inhibition in assay [1] and in assay [2] were 0% and 10%, respectively.
In the same order, the values of `COc1ccccc1C(=O)Nc1cccc(NC(=O)c2cccc(Br)c2)c1` are 11% and 39%.
For the molecule `COc1ccccc1NC(=O)c1cccc(-c2ccc3ccccc3c2)c1`, the inhibition in assay [1] is 51%; in assay [2], 89%. Moreover, the IC50 in assay [5] is 11 µM.
Regarding `COc1cccc(NC(=O)c2cccc(-c3ccc4ccccc4c3)c2)c1`, the values for the inhibition in assay [1] and in assay [2] were 29% and 66%, respectively.
On to `Cc1ccccc1C(=O)Nc1cccc(NC(=O)c2ccccc2Br)c1`, for which the values for the inhibition in assay [1] and in assay [2] were 1% and 0%, respectively.
